Numbered stars: 1 amine (or outer) side, 2 acyl side, 3 side chain; on linkers, the order of the positions; unused ones are H or OH. Bridge positions count the residues as written; N and C are the ends. Square brackets hold non-standard residues; d marks the D form. Peptide text beside a SMILES is read from it. * marks the point of attachment. ξ: configuration not given here. ξPro(4-NHCO(5-Cl-2-thienyl)) = O=C(NC1CNC(C(=O)O)C1)c1ccc(Cl)s1; X5 = O=C(c1cc2cc(Cl)ccc2[nH]1)*; Cysteamide = C(CS[*:3])N[*:1]; X9 = COc1ccc(CC(=O)*)cc1OC; X7 = CC(C)=CCCC(C)CC(=O)*; X1 = O=C(/C=C/c1ccccc1)*; 2Furoyl = O=C(c1ccco1)*; Api = NC1(C(=O)O)CCNCC1; Dap = NC[C@H](N)C(=O)O; X15 = O=C(c1cc[nH]n1)*; Mpa = O=C(O)CCS
Molecular target: MDM2 (Homo sapiens, UniProt Q00987)
Sequence (Q00987 whole entry): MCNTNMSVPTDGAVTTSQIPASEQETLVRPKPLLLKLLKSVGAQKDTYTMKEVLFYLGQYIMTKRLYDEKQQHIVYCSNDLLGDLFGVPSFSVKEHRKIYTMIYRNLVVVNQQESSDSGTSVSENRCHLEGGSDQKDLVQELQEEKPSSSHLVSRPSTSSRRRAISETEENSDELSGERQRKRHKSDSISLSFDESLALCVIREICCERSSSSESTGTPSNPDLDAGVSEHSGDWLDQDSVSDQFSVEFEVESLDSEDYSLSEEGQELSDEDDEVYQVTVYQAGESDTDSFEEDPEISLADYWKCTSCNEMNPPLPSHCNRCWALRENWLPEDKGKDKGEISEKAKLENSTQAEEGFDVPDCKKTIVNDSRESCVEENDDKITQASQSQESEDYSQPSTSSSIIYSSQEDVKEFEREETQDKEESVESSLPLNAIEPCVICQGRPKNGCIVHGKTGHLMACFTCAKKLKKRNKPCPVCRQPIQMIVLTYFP
Experiment: MDM2 binding screen: displacement of fluorescent p53 peptide probe FP53 (fluorescence polarization)
Conditions: for fraction fluorescent probe displaced, Screen: initial screen; for fraction fluorescent probe displaced, Screen / fraction fluorescent probe displaced, Replicate: crude macrocycle reactions; for fraction fluorescent probe displaced: 10 µM macrocycle concentration, crude acylated macrocycle (scaffold Mpa-AA1-AA2-AA3 x carboxylic acid), p53-based fluorescent peptide, human MDM2
Procedure: We screened Library 2 in 384-microwell plates by dispensing the target protein MDM2 and reporter peptide into the wells containing the macrocycle reactions.
The products were screened for displacement of a p53-based fluorescent peptide from human MDM2. Final macrocycle concentrations were 10 µM. For each macrocycle, the MDM2 binding was measured once.
One fluorescence anisotropy reading was taken with a Tecan Infinite F200 Pro fluorescence plate reader (excitation at 485 nm, emission at 535 nm) at 25 °C. Data was collected and exported using the Tecan Infinite M200 Pro instrument software. The data was analyzed by Excel (version 2016).

## O=C1CCSSCCNC(=O)c2cccc(c2)CNC(=O)C2(CCN(C(=O)c3ccc(Cl)cc3)CC2)NC(=O)C(Cc2c[nH]c3ccccc23)N1 (centres unmarked) [X W D6 B5 Acid 25]
Acid 25
  fraction fluorescent probe displaced, Screen: 0.15
  fraction fluorescent probe displaced, Replicate: 0.12

## O=C(/C=C/c1ccccc1)NC[C@@H]1NC(=O)[C@H](Cc2c[nH]c3ccccc23)NC(=O)CCNC(=O)CCSSCCNC1=O [X B2 W D3 Acid 91]
Acid 91
  fraction fluorescent probe displaced, Screen: 0.14
  fraction fluorescent probe displaced, Replicate: 0.07

## O=C1NC(Cc2c[nH]c3ccccc23)C(=O)NCCSSCCC(=O)N2CCN(C(=O)c3ccc(Cl)cc3)CC2C(=O)N2CCCC1C2 (mixture of isomers) [X D7 B4 W Acid 25]
Acid 25
  fraction fluorescent probe displaced, Screen: 0.25
  fraction fluorescent probe displaced, Replicate: 0.25

## O=C1CCSSCCNC(=O)C2CC(NC(=O)c3ccc(Cl)s3)CN2C(=O)C2CCCN2C(=O)C(Cc2c[nH]c3ccccc23)N1 (centres unmarked) [X W B1 D5 Acid 14] ([Mpa]WP[ξPro(4-NHCO(5-Cl-2-thienyl))]-Cysteamide; disulfide 1-C; configuration not given here)
Acid 14
  fraction fluorescent probe displaced, Screen: 0.0241
  fraction fluorescent probe displaced, Replicate: 0.17

## O=C(/C=C/c1ccccc1)NC[C@@H]1NC(=O)c2cccc(c2)CNC(=O)[C@H](Cc2c[nH]c3ccccc23)NC(=O)CCSSCCNC1=O [X W B5 D3 Acid 91]
Acid 91
  fraction fluorescent probe displaced, Screen: 0.03
  fraction fluorescent probe displaced, Replicate: 0.07

## COc1ccc(CC(=O)NC[C@@H]2NC(=O)[C@@H]3CCCN3C(=O)CCSSCCNC(=O)[C@H](Cc3ccccc3)NC2=O)cc1OC [X-B1-D3-F + A37] ([Mpa]P[Dap](X9)F-Cysteamide; disulfide 1-C)
  fraction fluorescent probe displaced: 0.02818

## O=C(NC[C@@H]1NC(=O)[C@@H]2CCCN2C(=O)CCSSCCNC(=O)[C@H](Cc2ccccc2)NC1=O)c1cc2cc(Cl)ccc2[nH]1 [X-B1-D3-F + A39] ([Mpa]P[Dap](X5)F-Cysteamide; disulfide 1-C)
  fraction fluorescent probe displaced: 0.08617

## O=C(NC[C@@H]1NC(=O)[C@@H]2CCCN2C(=O)CCSSCCNC(=O)[C@H](Cc2ccccc2)NC1=O)c1ccco1 [X-B1-D3-F + A16] ([Mpa]P[Dap](2Furoyl)F-Cysteamide; disulfide 1-C)
  fraction fluorescent probe displaced: -0.04895

## O=C1CCSSCCNC(=O)[C@H]2CCCN(C2)C(=O)[C@H](Cc2c[nH]c3ccccc23)NC(=O)C2(CCN(C(=O)/C=C/c3ccccc3)CC2)N1 [X D6 W B4 Acid 91]
Acid 91
  fraction fluorescent probe displaced, Screen: 0.14
  fraction fluorescent probe displaced, Replicate: 0.07

## O=C(/C=C/c1ccccc1)NC[C@@H]1NC(=O)[C@@H]2CCCN2C(=O)CCSSCCNC(=O)[C@H](Cc2ccccc2)NC1=O [X B1 D3 F Acid 91] ([Mpa]P[Dap](X1)F-Cysteamide; disulfide 1-C)
Acid 91
  fraction fluorescent probe displaced, Screen: 0.08
  fraction fluorescent probe displaced, Replicate: 0.0168

## O=C1CCSSCCNC(=O)[C@H](Cc2ccccc2)NC(=O)[C@H](CNC(=O)c2ccc(Cl)s2)NC(=O)CCN1 [X B2 D3 F Acid 14]
Acid 14
  fraction fluorescent probe displaced, Screen: -0.00483
  fraction fluorescent probe displaced, Replicate: 0.0465

## O=C(NC[C@@H]1NC(=O)[C@@H]2CCCN2C(=O)CCSSCCNC(=O)[C@H](Cc2c[nH]c3ccccc23)NC1=O)c1cc2cc(Cl)ccc2[nH]1 [X-B1-D3-W + A39] ([Mpa]P[Dap](X5)W-Cysteamide; disulfide 1-C)
  fraction fluorescent probe displaced: 0.06212

## O=C1CCSSCCNC(=O)C2(CCN(C(=O)/C=C/c3ccccc3)CC2)NC(=O)[C@H]2CCCN(C2)C(=O)[C@H](Cc2ccccc2)N1 [X F B4 D6 Acid 91]
Acid 91
  fraction fluorescent probe displaced, Screen: 0.0563
  fraction fluorescent probe displaced, Replicate: -0.00827

## O=C1NC(Cc2ccccc2)C(=O)N2CCCC2C(=O)NCCSSCCC(=O)N2CCN(C(=O)c3ccc(Cl)cc3)CC12 (centres unmarked) [X D7 F B1 Acid 25]
Acid 25
  fraction fluorescent probe displaced, Screen: 0.09
  fraction fluorescent probe displaced, Replicate: 0.07

## O=C1CCSSCCNC(=O)[C@@H]2CCCN2C(=O)[C@H](Cc2c[nH]c3ccccc23)NC(=O)C2(CCN(C(=O)/C=C/c3ccccc3)CC2)N1 [X D6 W B1 Acid 91] ([Mpa][Api](X1)WP-Cysteamide; disulfide 1-C)
Acid 91
  fraction fluorescent probe displaced, Screen: 0.08
  fraction fluorescent probe displaced, Replicate: 0.04

## O=C1CCSSCCNC(=O)[C@H]2CCCN(C2)C(=O)C2(CCN(C(=O)/C=C/c3ccccc3)CC2)NC(=O)[C@H](Cc2c[nH]c3ccccc23)N1 [X W D6 B4 Acid 91]
Acid 91
  fraction fluorescent probe displaced, Screen: 0.11
  fraction fluorescent probe displaced, Replicate: 0.09

## O=C1CCNC(=O)[C@H](Cc2ccccc2)NC(=O)C2(CCN(C(=O)c3ccc(Cl)s3)CC2)NC(=O)CCSSCCN1 [X D6 F B2 Acid 14]
Acid 14
  fraction fluorescent probe displaced, Screen: 0.0241
  fraction fluorescent probe displaced, Replicate: 0.07

## O=C1CCSSCCNC(=O)C(Cc2c[nH]c3ccccc23)NC(=O)C2CN(C(=O)C=Cc3ccccc3)CCN2C(=O)CCN1 (centres unmarked) [X B2 D7 W Acid 91]
Acid 91
  fraction fluorescent probe displaced, Screen: 0.14
  fraction fluorescent probe displaced, Replicate: 0.07

## CC(C)=CCCC(C)CC(=O)NC[C@@H]1NC(=O)[C@@H]2CCCN2C(=O)CCSSCCNC(=O)[C@H](Cc2ccccc2)NC1=O (some centres unmarked) [X-B1-D3-F + A84] ([Mpa]P[Dap](X7)F-Cysteamide; disulfide 1-C)
  fraction fluorescent probe displaced: 0.05085

## O=C(/C=C/c1ccccc1)NC[C@@H]1NC(=O)CCNC(=O)CCSSCCNC(=O)[C@H](Cc2c[nH]c3ccccc23)NC1=O [X B2 D3 W Acid 91]
Acid 91
  fraction fluorescent probe displaced, Screen: 0.27
  fraction fluorescent probe displaced, Replicate: 0.14

## O=C1CCSSCCNC(=O)C2CN(C(=O)c3ccc(Cl)s3)CCN2C(=O)C(Cc2c[nH]c3ccccc23)NC(=O)CCN1 (mixture of isomers) [X B2 W D7 Acid 14]
Acid 14
  fraction fluorescent probe displaced, Screen: 0.23
  fraction fluorescent probe displaced, Replicate: 0.10

## O=C(C=Cc1ccccc1)NC1CC2C(=O)NCCSSCCC(=O)N3CCCC(C3)C(=O)NC(Cc3c[nH]c4ccccc34)C(=O)N2C1 (centres unmarked) [X B4 W D5 Acid 91]
Acid 91
  fraction fluorescent probe displaced, Screen: 0.0563
  fraction fluorescent probe displaced, Replicate: 0.12

## O=C1CCSSCCNC(=O)c2cccc(c2)CNC(=O)[C@H](Cc2c[nH]c3ccccc23)NC(=O)[C@H](CNC(=O)c2ccc(Cl)cc2)N1 [X D3 W B5 Acid 25]
Acid 25
  fraction fluorescent probe displaced, Screen: 0.35
  fraction fluorescent probe displaced, Replicate: 0.28

## O=C1CCSSCCNC(=O)C2CN(C(=O)C=Cc3ccccc3)CCN2C(=O)C(Cc2ccccc2)NC(=O)CCN1 (centres unmarked) [X B2 F D7 Acid 91]
Acid 91
  fraction fluorescent probe displaced, Screen: 0.03
  fraction fluorescent probe displaced, Replicate: -0.00827

## O=C1CCSSCCNC(=O)[C@H](Cc2c[nH]c3ccccc23)NC(=O)[C@H]2CCCN(C2)C(=O)C2(CCN(C(=O)c3ccc(Cl)s3)CC2)N1 [X D6 B4 W Acid 14]
Acid 14
  fraction fluorescent probe displaced, Screen: 0.17
  fraction fluorescent probe displaced, Replicate: 0.25

## O=C1CCSSCCNC(=O)[C@H](CNC(=O)c2ccc(Cl)cc2)NC(=O)[C@H]2CCCN(C2)C(=O)[C@H](Cc2c[nH]c3ccccc23)N1 [X W B4 D3 Acid 25]
Acid 25
  fraction fluorescent probe displaced, Screen: 0.25
  fraction fluorescent probe displaced, Replicate: 0.30

## O=C1CCSSCCNC(=O)c2cccc(c2)CNC(=O)[C@H](CNC(=O)c2ccc(Cl)cc2)NC(=O)[C@H](Cc2ccccc2)N1 [X F D3 B5 Acid 25]
Acid 25
  fraction fluorescent probe displaced, Screen: 0.0569
  fraction fluorescent probe displaced, Replicate: 0.07

## O=C1CCSSCCNC(=O)C2CCCN(C2)C(=O)C2CN(C(=O)c3ccc(Cl)cc3)CCN2C(=O)C(Cc2c[nH]c3ccccc23)N1 (centres unmarked) [X W D7 B4 Acid 25]
Acid 25
  fraction fluorescent probe displaced, Screen: 0.15
  fraction fluorescent probe displaced, Replicate: 0.07

## NC[C@@H]1NC(=O)[C@@H]2CCCN2C(=O)CCSSCCNC(=O)[C@H](Cc2ccccc2)NC1=O [X-B1-D3-F + No Acid] ([Mpa]P[Dap]F-Cysteamide; disulfide 1-C)
  fraction fluorescent probe displaced: 0.01749

## O=C1CCSSCCNC(=O)C(Cc2ccccc2)NC(=O)C2CN(C(=O)c3ccc(Cl)s3)CCN2C(=O)c2cccc(c2)CN1 (mixture of isomers) [X B5 D7 F Acid 14]
Acid 14
  fraction fluorescent probe displaced, Screen: -0.00483
  fraction fluorescent probe displaced, Replicate: 0.0465

## O=C1CCSSCCNC(=O)[C@H](Cc2ccccc2)NC(=O)c2cccc(c2)CNC(=O)C2(CCN(C(=O)/C=C/c3ccccc3)CC2)N1 [X D6 B5 F Acid 91]
Acid 91
  fraction fluorescent probe displaced, Screen: -0.05
  fraction fluorescent probe displaced, Replicate: -0.0333

## O=C(/C=C/c1ccccc1)NC[C@@H]1NC(=O)[C@H](Cc2c[nH]c3ccccc23)NC(=O)CCSSCCNC(=O)CCNC1=O [X W D3 B2 Acid 91]
Acid 91
  fraction fluorescent probe displaced, Screen: 0.08
  fraction fluorescent probe displaced, Replicate: 0.04

## O=C1CCSSCCNC(=O)C2(CCN(C(=O)c3ccc(Cl)s3)CC2)NC(=O)CCNC(=O)C(Cc2ccccc2)N1 (centres unmarked) [X F B2 D6 Acid 14]
Acid 14
  fraction fluorescent probe displaced, Screen: 0.20
  fraction fluorescent probe displaced, Replicate: 0.0465

## O=C1CCSSCCNC(=O)C(Cc2ccccc2)NC(=O)C2CC(NC(=O)c3ccc(Cl)cc3)CN2C(=O)c2cccc(c2)CN1 (centres unmarked) [X B5 D5 F Acid 25]
Acid 25
  fraction fluorescent probe displaced, Screen: 0.13
  fraction fluorescent probe displaced, Replicate: 0.05

## O=C(NC[C@@H]1NC(=O)[C@@H]2CCCN2C(=O)CCSSCCNC(=O)[C@H](Cc2c[nH]c3ccccc23)NC1=O)c1cc[nH]n1 [X-B1-D3-W + A5] ([Mpa]P[Dap](X15)W-Cysteamide; disulfide 1-C)
  fraction fluorescent probe displaced: 0.05625

## O=C(/C=C/c1ccccc1)N[C@H]1C[C@H]2C(=O)NCc3cccc(c3)C(=O)N[C@@H](Cc3c[nH]c4ccccc34)C(=O)NCCSSCCC(=O)N2C1 [X D5 B5 W Acid 91]
Acid 91
  fraction fluorescent probe displaced, Screen: 0.00268
  fraction fluorescent probe displaced, Replicate: 0.09

— paper PMC9250534, “Synthesis and direct assay of large macrocycle diversities by combinatorial late-stage modification at picomole scale” (Nature Communications, 2022)
